According to ChEMBL document CHEMBL1201862, “PubChem BioAssay data set” (2004):
Activity calls are given as the source filed them.

Columns and labels:
Kallikrein-7 = Kallikrein-7 (Homo sapiens, UniProt P49862); experiment: Fluorescence Intensity-based biochemical primary high throughput dose response assay to identify activators of kallikrein-7 (K7) zymogen.
[1] = viability loss in HEK293 cells – cell-based, plate reader, cherry-picked samples, cytotoxicity control, dose response (AID 743446); type: functional
[2] = A549 cell cytotoxicity, dose response, cytotoxicity control, plate reader, cherry-pick, antagonist series (AID 743412); type: functional, cell-based
Major prion protein = Major prion protein (Homo sapiens, UniProt P04156); type: functional, cell-based
cells [3] = experiment: cells
[4] = biological target: Mitogen-activated protein kinase 10 (Homo sapiens, UniProt P53779); experiment: Dose response biochemical screening assay for inhibitors of c-Jun N-Terminal Kinase 3 (JNK3). [Related pubchem assays: 746 ]
[5] = HGIII-sPLA2 enzyme inhibition potency – biochemical, QFRET, IC50, dose response (AID 743457);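 further: green fluorescence rise as the enzyme cleaves BODIPY PC-A2 in liposomes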
cells [6] = conditions: A549
fMet-Leu-Phe receptor = fMet-Leu-Phe receptor (Homo sapiens, UniProt P21462); experiment: formyl peptide receptor binders – dose response (AID 519); type: functional
[7] = Dd2 malaria parasite growth inhibition potency – SYBR Green, dry powder samples, dose response (AID 1159566); type: functional, cell-based;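 further: potency for growth inhibition with lower SYBR green DNA signal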
[8] = toxicity to human HepG2 hepatoma cells – cell-based, plate reader, dry powder samples, cytotoxicity control, dose response (AID 1159569); type: functional;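 further: inhibitor potency with signal falling toward the positive control level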
[9] = growth inhibition of yeast DHODH-expressing 3D7 parasites – SYBR Green, dry powder samples, dose response (AID 1159570); type: functional, cell-based;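 further: parasite growth measured after 72 hours of compound exposure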
[10] = P. falciparum Dd2 growth inhibitors, dose response, SYBR Green, cherry-picked samples (AID 1159567); type: functional, cell-based
[11] = growth inhibition of PfATP4-mutant resistant parasites – NITD609-resistant line, SYBR Green, dry powder, dose response (AID 1159571); type: functional, cell-based;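 further: parasites synchronized at ring stage by sorbitol before testing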
[12] = rise of 4N DNA cells, HeLa – IC50, dose response (AID 1117351); type: functional, cell-based
[13] = rise of 2N DNA cells, HeLa – IC50, dose response (AID 1117349); type: functional, cell-based
[14] = IC50 of insulin release inhibition, rat insulinoma INS-1E line, 5 mM glucose, cell-based (AID 1117331); type: functional

For Nc1ccc(Cl)cc1C(=O)OCC(=O)NC1CCS(=O)(=O)C1 (stereo not drawn), the EC50 (Kallikrein-7) was > 7.72 µM (active).

With O=c1cc(-c2c(F)c(F)c(F)c(F)c2F)oc2ccccc12 the AC50 [1] was 37.5 µM (active) and the AC50 [2] was 17.4 µM (active).

In the case of N#Cc1c(O)nc(SCc2ccc(F)cc2)nc1-c1ccco1, the IC50 (Major prion protein) is reported as 1.02 µM (active), the IC50 (cells [3]) is reported as > 138 µM (inactive) and the IC50 [4] is reported as 13.6 µM (not active).

In the case of CCOc1ccc(-n2c(N)c(-c3nc4ccccc4[nH]3)sc2=S)cc1, the IC50 [5] is reported as > 122 µM (inactive).

For COc1cc(C2C3=C(CC(C)(C)CC3=O)N(C)C3=C2C(=O)CC(C)(C)C3)cc(Br)c1O, the AC50 (cells [6]) was > 52 µM (inactive).

In the case of Cc1cc(N2C(=O)C(O)=C(C(=O)c3ccc(F)cc3)C2c2cccc(Br)c2)no1 (stereo not drawn), the Ki (fMet-Leu-Phe receptor) is reported as > 66.7 µM (inactive).

With Cc1cccc(/C=N/c2ccccc2C(N)=O)c1 the EC50 (Kallikrein-7) was > 69.5 µM (inactive).

With O=S(=O)(c1ccc(F)cc1)N1CCCCN2[C@@H](CO)[C@@H](c3ccc(C4=CCCCC4)cc3)[C@@H]2C1 the AC50 [7] was 1.07 µM (active), the AC50 [8] was 12.8 µM (active) and the AC50 [9] was 1.15 µM (active). The AC50 [10] was 1.69 µM (active) and the AC50 [11] was 0.915 µM (active).

For C1CN(P2(N3CC3)=NP(N3CC3)(N3CC3)=NP(N3CC3)(N3CC3)=N2)CCO1 (stereo not drawn) [FOTRETAMINE], the IC50 [12] was > 10 µM (inactive) and the IC50 [13] was > 10 µM (inactive).

With C[C@H]1CN([C@@H](C)CO)C(=O)c2c(c3ccccc3n2C)-c2ccccc2CO[C@H]1CN(C)C(=O)Nc1cccc(Cl)c1Cl the AC50 [7] was 0.785 µM (active), the AC50 [8] was 18.7 µM (active) and the AC50 [9] was 1.77 µM (active). For the same compound, the AC50 [10] was 3.09 µM (active) and the AC50 [11] was 0.897 µM (active).

For CCCC(CCC)C(=O)O [VALPROIC ACID], the IC50 [14] was > 33.3 µM (inactive).
